Reference: patent US20220168201A1, “USE OF DIANHYDROHEXITOL FOR PRESERVING COSMETIC PREPARATIONS” (ROQUETTE FRERES, priority 2019, published 2022)

What was measured:
Propionobacterium acnes = assay: In-vitro effect on microbial strains: population count over 28 days, Propionobacterium acnes; assay type: cell-based; conditions: for Number of colony-forming strains after: 24 h / Number of colony-forming strains after: 7 days / Number of colony-forming strains after: 14 days / Number of colony-forming strains after: 21 days / Number of colony-forming strains after: 28 days: inoculum 3.98 × 10^5, 22° C.
Description: (§1) The samples are prepared under sterile conditions and deposited in microplates (2-ml wells) with the concentrations hereunder. Two analysis controls were carried out: • a positive control corresponding to 0.5% Phenonip®; • a negative control consisting of 0.85% physiological saline solution. Samples and controls are contaminated with three bacterial strains, namely Staphylococcus epidermidis, Corynebacterium xerosis, and Propionobacterium acnes, at a rate of approximately […] to 4.15×10^5 colony-forming units per milliliter, denoted cfu/ml; and a fungal strain, namely Malassezia furfur, at a rate of approximately 1.50×104 to 3.80×10^4 cfu/ml. After contamination, the samples are carefully mixed by suction and discharge cycles in order to ensure a uniform distribution of the microorganism. The whole is incubated at 22° C. during 28 days. The microbial population is sampled and counted at 24 hours and 7, 14, 21 and 28 days for each microbial strain. The contaminated samples are collected and then deposited in serial dilutions in microtiter plates, in the presence of culture medium, which is a saline solution with 0.85% sodium chloride, and a dehydrogenase activity indicator reagent, which is 2,3,5-triphenyltetrazolium chloride (denoted TTC). The results are presented in the following pages with the variation of the microbial population over the 28 days of study, for the tested microbial strain. The measurements of microbial populations in the samples collected at each time, are carried out according to the following microtiter method, for one sample collection. In the 96 wells with a volume of 250 μL of a microtiter plate, 20 μL of the collected sample are diluted by a factor of 10 by dispersion in 180 μL of Letheen broth (Difco, ref. 268110) containing 1.5% of Tween 80 (Sigma, ref. […]) and TTC (Sigma, ref. […]). The microplate is incubated for 48 hours at 32.5° C., and the growth of the microorganisms is monitored by the color change, from colorless to red/pink. The highest reciprocal dilution indicating a growth makes it possible to determine the log number of each microorganism at each time. The measurements of microbial populations taken at each collection time are expressed as colony forming units/ml.

[1] = system: Staphylococcus epidermidis; assay: In-vitro effect on microbial strains: population count over 28 days, Staphylococcus epidermidis; assay type: cell-based; conditions: for Number of colony-forming strains after: 24 h / Number of colony-forming strains after: 7 days / Number of colony-forming strains after: 14 days / Number of colony-forming strains after: 21 days / Number of colony-forming strains after: 28 days: inoculum 1.43 × 10^5, 22° C.
Description: as §1

Staphylococcus aureus = conditions: U.S. Pat. No. 9,295,626, col. 27, Table 2; cited from earlier work
Candida albicans = conditions: U.S. Pat. No. 9,295,626, col. 27, Table 2; cited from earlier work
Corynebacterium xerosis = assay: In-vitro effect on microbial strains: population count over 28 days, Corynebacterium xerosis; assay type: cell-based; conditions: for Number of colony-forming strains after: 24 h / Number of colony-forming strains after: 7 days / Number of colony-forming strains after: 14 days / Number of colony-forming strains after: 21 days / Number of colony-forming strains after: 28 days: inoculum 3.2 × 10^5, 22° C.
Description: as §1

Aspergillus brasiliensis = conditions: U.S. Pat. No. 9,295,626, col. 27, Table 2; cited from earlier work
Malassezia furfur = assay: In-vitro effect on microbial strains: population count over 28 days, Malassezia furfur; assay type: cell-based; conditions: for Number of colony-forming strains after: 24 h / Number of colony-forming strains after: 7 days / Number of colony-forming strains after: 14 days / Number of colony-forming strains after: 21 days / Number of colony-forming strains after: 28 days: inoculum 1.5 × 10^4, 22° C.
Description: as §1

[2] = after 24 hours, doses 1%, 5%, 9%
[3] = after 24 hours, the three doses tested (1%, 5%, 9%)

O[C@@H]1CO[C@H]2[C@@H]1OC[C@@H]2O [isosorbide, 1,4-3,6-dianhydrosorbitol]
bactericide: effect on the strain in words (Propionobacterium acnes; summary of Table 1) | effect on the strain in words (Malassezia furfur; summary of Table 2)
no more colony-forming strains: colony-forming strains observed ([1]; after 7 days) | colony-forming strains observed (Corynebacterium xerosis; after 7 days)
weak bactericide: effect on the strain in words ([1]; summary of Table 4)
0 colony forming units/ml: Number of colony-forming strains after: 24 h (Propionobacterium acnes; isosorbide dose 1%) | Number of colony-forming strains after: 7 days (Propionobacterium acnes; isosorbide dose 1%) | Number of colony-forming strains after: 14 days (Propionobacterium acnes; isosorbide dose 1%) | Number of colony-forming strains after: 21 days (Propionobacterium acnes; isosorbide dose 1%) | Number of colony-forming strains after: 28 days (Propionobacterium acnes; isosorbide dose 1%) | Number of colony-forming strains after: 24 h (Propionobacterium acnes; isosorbide dose 5%) | Number of colony-forming strains after: 7 days (Propionobacterium acnes; isosorbide dose 5%) | Number of colony-forming strains after: 14 days (Propionobacterium acnes; isosorbide dose 5%) | Number of colony-forming strains after: 21 days (Propionobacterium acnes; isosorbide dose 5%) | Number of colony-forming strains after: 28 days (Propionobacterium acnes; isosorbide dose 5%) | Number of colony-forming strains after: 24 h (Propionobacterium acnes; isosorbide dose 9%) | Number of colony-forming strains after: 7 days (Propionobacterium acnes; isosorbide dose 9%) | Number of colony-forming strains after: 14 days (Propionobacterium acnes; isosorbide dose 9%) | Number of colony-forming strains after: 21 days (Propionobacterium acnes; isosorbide dose 9%) | Number of colony-forming strains after: 28 days (Propionobacterium acnes; isosorbide dose 9%) | Number of colony-forming strains after: 7 days ([1]; isosorbide dose 1%) | Number of colony-forming strains after: 14 days ([1]; isosorbide dose 1%) | Number of colony-forming strains after: 21 days ([1]; isosorbide dose 1%) | Number of colony-forming strains after: 28 days ([1]; isosorbide dose 1%) | Number of colony-forming strains after: 7 days ([1]; isosorbide dose 5%) | Number of colony-forming strains after: 14 days ([1]; isosorbide dose 5%) | Number of colony-forming strains after: 21 days ([1]; isosorbide dose 5%) | Number of colony-forming strains after: 28 days ([1]; isosorbide dose 5%) | Number of colony-forming strains after: 7 days ([1]; isosorbide dose 9%) | Number of colony-forming strains after: 14 days ([1]; isosorbide dose 9%) | Number of colony-forming strains after: 21 days ([1]; isosorbide dose 9%) | Number of colony-forming strains after: 28 days ([1]; isosorbide dose 9%) | Number of colony-forming strains after: 7 days (Corynebacterium xerosis; isosorbide dose 1%) | Number of colony-forming strains after: 14 days (Corynebacterium xerosis; isosorbide dose 1%) | Number of colony-forming strains after: 21 days (Corynebacterium xerosis; isosorbide dose 1%) | Number of colony-forming strains after: 28 days (Corynebacterium xerosis; isosorbide dose 1%) | Number of colony-forming strains after: 7 days (Corynebacterium xerosis; isosorbide dose 5%) | Number of colony-forming strains after: 14 days (Corynebacterium xerosis; isosorbide dose 5%) | Number of colony-forming strains after: 21 days (Corynebacterium xerosis; isosorbide dose 5%) | Number of colony-forming strains after: 28 days (Corynebacterium xerosis; isosorbide dose 5%) | Number of colony-forming strains after: 7 days (Corynebacterium xerosis; isosorbide dose 9%) | Number of colony-forming strains after: 14 days (Corynebacterium xerosis; isosorbide dose 9%) | Number of colony-forming strains after: 21 days (Corynebacterium xerosis; isosorbide dose 9%) | Number of colony-forming strains after: 28 days (Corynebacterium xerosis; isosorbide dose 9%) | Number of colony-forming strains after: 24 h (Malassezia furfur; isosorbide dose 1%) | Number of colony-forming strains after: 7 days (Malassezia furfur; isosorbide dose 1%) | Number of colony-forming strains after: 14 days (Malassezia furfur; isosorbide dose 1%) | Number of colony-forming strains after: 21 days (Malassezia furfur; isosorbide dose 1%) | Number of colony-forming strains after: 28 days (Malassezia furfur; isosorbide dose 1%) | Number of colony-forming strains after: 24 h (Malassezia furfur; isosorbide dose 5%) | Number of colony-forming strains after: 7 days (Malassezia furfur; isosorbide dose 5%) | Number of colony-forming strains after: 14 days (Malassezia furfur; isosorbide dose 5%) | Number of colony-forming strains after: 21 days (Malassezia furfur; isosorbide dose 5%) | Number of colony-forming strains after: 28 days (Malassezia furfur; isosorbide dose 5%) | Number of colony-forming strains after: 24 h (Malassezia furfur; isosorbide dose 9%) | Number of colony-forming strains after: 7 days (Malassezia furfur; isosorbide dose 9%) | Number of colony-forming strains after: 14 days (Malassezia furfur; isosorbide dose 9%) | Number of colony-forming strains after: 21 days (Malassezia furfur; isosorbide dose 9%) | Number of colony-forming strains after: 28 days (Malassezia furfur; isosorbide dose 9%)
at least 3 log 10: reduction of the number of colony-forming strains (Corynebacterium xerosis; [3])
7 × 10^2 colony forming units/ml: Number of colony-forming strains after: 24 h ([1]; isosorbide dose 9%)
no colony-forming strain is observed: colony-forming strains observed (Propionobacterium acnes; [2]) | colony-forming strains observed (Malassezia furfur; [2])
1 × 10^2 colony forming units/ml: Number of colony-forming strains after: 24 h (Corynebacterium xerosis; isosorbide dose 5%)
4 × 10^3 colony forming units/ml: Number of colony-forming strains after: 24 h ([1]; isosorbide dose 1%)
moderate bactericide: effect on the strain in words (Corynebacterium xerosis; summary of Table 3)
1 × 10^3 colony forming units/ml: Number of colony-forming strains after: 24 h ([1]; isosorbide dose 5%)
4 × 10^2 colony forming units/ml: Number of colony-forming strains after: 24 h (Corynebacterium xerosis; isosorbide dose 1%)
at least 2 log 10: reduction of the number of colony-forming strains [1, 3]
10%: minimum inhibitory concentration (Staphylococcus aureus) | minimum inhibitory concentration (Candida albicans) | minimum inhibitory concentration (Aspergillus brasiliensis)
